Assay results published in US4075409A, “Benzophenone derivatives” (Cassella Farbwerke Mainkur Aktiengesellschaft, priority 1973, dated 1978).
Where a name gives a salt, the structure may show the parent alone.

How the values were obtained:
albino mice = assay: climbing test, central depressant (sedative) action on albino mice; type: in vivo; details: Mus musculus, po, read-out: Central depressant action in % (percentage of animals which no longer embark on the climbing work); for responders at 8 mg/kg: 8.0 mg/kg orally
Procedure: The pharmacological examination of the central depressant (sedative) action was carried out on albino mice with the aid of the climbing test described by P. K. KNEIP: Arch. int. pharmacodyn 126, 238 (1960) and R. DOMENJOZ and W. THEOBALD: Arch. int. pharmacodyn 120, 450 (1959).
In the final column of the table, the percentage of the experimental animals which no longer embark on the climbing work, which is normally readily undertaken, is given under the heading "Central depressant action in %".
(§1) The benzophenone derivatives were tested in the form of their hydrochlorides.

[1] = LD50 mice intraperitoneally; details: mouse, in vivo, ip, benzophenones as hydrochlorides
Procedure: as §1

Row | Structure (SMILES) | responders at 8 mg/kg (albino mice; as hydrochloride) [%] | LD50 [1] [mg/kg] | responders at 10 mg/kg (albino mice; 10.0 mg/kg orally, as hydrochloride) [%] | responders at 70 mg/kg (albino mice; 70 mg/kg orally, comparison preparation) [%] | responders at 4 mg/kg (albino mice; 4.0 mg/kg orally, as hydrochloride) [%]
1 | CN(CC(=O)Nc1ccc(Cl)cc1C(=O)c1ccccc1)C(=S)Nc1ccccc1 [2-(3-Phenylaminothiocarbonyl-3-aza-3-methyl-propanamido)-5-chlorobenzophenone] | 50 | > 1000 | – | – | –
2 | CCOC(=O)NCC(=O)N(C)c1ccc([N+](=O)[O-])cc1C(=O)c1ccccc1 [2-(3-Ethoxycarbonyl)-N-methyl-3-aza-propanamido)-5-nitro-benzophenone] | – | 500 | 70 | – | –
3 | CCOC(=O)NCC(=O)N(C)c1ccc(Cl)cc1C(=O)c1ccccc1Cl [2-(3-Ethoxycarbonyl-N-methyl-3-aza-propanamido)-2',5-dichlorobenzophenone] | 90 | 240 | – | – | –
4 | CCCC(C)(COC(N)=O)COC(N)=O [Meprobamate, reference compound] | – | – | – | 50 | –
5 | CCCCNC(=O)CCN(CCCC)CC(=O)N(C)c1ccc([N+](=O)[O-])cc1C(=O)c1ccccc1 [2-(5-n-Butylaminocarbonyl-N-methyl-3-n-butyl-3-aza-pentanamido)-5-nitro-benzophenone] | 50 | 500 | – | – | –
6 | CCOC(=O)NCC(=O)N(C)c1ccc(Cl)cc1C(=O)c1ccccc1.Cl [2-(3-ethoxycarbonyl-N-methyl-3-aza-propanamido)-5-chlorobenzophenone hydrochloride] | – | 270 | – | – | 30
7 | CC(Cc1ccccc1)NCC(=O)N(C)c1ccc([N+](=O)[O-])cc1C(=O)c1ccccc1 (racemic) [DL-2-(5-Phenyl-N-methyl-4-methyl-3-aza-pentanamido)-5-nitrobenzophenone hydrochloride] | 50 | 44 | – | – | –
8 | CC(Cc1ccccc1)NCC(=O)N(C)c1ccc(Cl)cc1C(=O)c1ccccc1Cl (racemic) [DL-2-(5-phenyl-N-methyl-4-methyl-3-aza-pentanamido)-2',5-dichlorobenzophenone hydrochloride] | 70 | 24 | – | – | –
9 | CC(Cc1ccccc1)NCC(=O)N(C)c1ccc(Cl)cc1C(=O)c1ccccc1 (racemic) [DL-2-(5-phenyl-N-methyl-4-methyl-3-aza-pentanamido)-5-chlorobenzophenone hydrochloride] | 40 | 240 | – | – | –
